# Laboratory results as given in patent US4795639A, “Potentiating formulations” (priority 1971, dated 1989).
# Where “and” joins values, the source holds several entries; their conditions need not be identical. Identical values can stand only once.
# Key:
# E. tenella = test: coccidiosis screening test in chicks, E. tenella; format: in vivo, Eimeria tenella; settings: Expt. 4; 100,000 oocysts; p.p.m SQX/DV/DMHP: b374 10/-/-; b375 -/20/-; b376 -/-/10; b377 10/-/10; b378 -/20/10; b379 10/20/-; b381 10/20/10; b382 20/-/-; b383 -/40/-; b384 -/-/20; b385 20/-/20; b386 -/40/20; b387 20/40/-; b389 20/40/20
# Description: "Screening tests" were performed to establish the effectiveness of the compounds of formula (I) both alone and in combination with a competitor and or an inhibitor and to determine the most useful levels of relative concentrations of each component in combatting or suppressing coccidiosis.
# Groups of Ranger cockerels, housed in small, heated cages with wire floors situated in enironmentally controlled isolation rooms, were infected orally with sporulated oocysts of the Eimeria spp such as E. tenella or E. acervulina. The appropriate test compound(s), (DMHP, sulphaquinoxaline (SQX) or diaveridine (DV) or any combination of these) were incorporated in a small quantity of specially formulated laboratory ration deficient in Vitamin K (`L.D.4 mash`), as a 1/10 pre-mix, which was then mixed into the diet on a horizontal roller drum mixed and administered to groups of chicks one day prior to infection, leaving some groups as untreated controls. Administration was continued for several days, for example about 8 or 9 days.
# The amount of damage, marked by lesions in the caecal walls was investigated in those chicks that died during the course of the experiment, and in those sacrificed on the final day of administration, and compared with the untreated controls as a basis for the determination of therapeutic activity. In addition the mortality rate and the percentage weight gains in the various groups were assessed. A marked or definite effect of the administered drug could be recognised even when the mortality rates were similar or identical, since the increase in the weight gains and the reduction of the extension of lesions indicated by the lesion score, is characteristic of an improvement. […]
# 4:1 sulphaquinoxaline/diaveridine mixtures at levels of 80/20, 60/15, 40/10 and 20/5 p.p.m. were administered alone and in combination with a wide range of low concentrations of DMHP to the birds.
# The results of these screening tests are set forth in Table 4 showing the concentration of the various component compounds in parts per million of the bird's diet, the mortality from coccidiosis, the percentage weight gain, the lesion score the oocyst output, and the activity. The caecal lesion index is calculated using a score system where: […]
# In addition a score of 4 is assigned to any bird that dies of coccidiosis during the experiment. [formula] In the activity column, +++, ++, +, ± and - relate respectively to very high, high, slight, doubtful and nil activity of the test drug against the Eimeria infection.
# Pasteurella multocida = Pasteurella multocida infection in chicks; format: in vivo; settings: for Cumulative Mortality on day 1: groups of 10 chicks, 15:85 TMP SQX p.p.m / DMHP p.p.m: b654 25/20, b655 25/10, b656 25/5, b657 12.5/20, b658 12.5/10, b659 12.5/5, b660 50/-, b661 25/-, b662 12.5/-, b665 TMP 15, b666 TMP 30, b667 SQX 85, b669 SQX 42.5
# [1] = tested on: Staphylococcus aureus N 491; test: growth rate inhibition, turbidometric, Wellcome Nutrient Broth; format: cell-based
# [2] = tested on: Streptococcus faecalis CN 478; test: testing discs on standard nutrient medium; format: cell-based; settings: per 6 mm filterpaper disc: TMP 1.25 μg, SMX 23.75 μg, DMHP 100 μg, as in label
# Proteus vulgaris CN 329 = test: testing discs on standard nutrient medium; format: cell-based; settings: per 6 mm filterpaper disc: TMP 1.25 μg, SMX 23.75 μg, DMHP 100 μg, as in label
# Staphylococcus aureus [3] = test: M.I.C. in Wellcome Nutrient Agar, 18 hours at 37° C.; format: cell-based; settings: DMHP Nil
# [4] = tested on: Pseudomonas aeruginosa CN 200; test: testing discs on standard nutrient medium; format: cell-based; settings: per 6 mm filterpaper disc: TMP 1.25 μg, SMX 23.75 μg, DMHP 100 μg, as in label
# Escherichia coli CN 314 = test: testing discs on standard nutrient medium; format: cell-based; settings: per 6 mm filterpaper disc: TMP 1.25 μg, SMX 23.75 μg, DMHP 100 μg, as in label
# [5] = tested on: Staphylococcus aureus CN 491; test: testing discs on standard nutrient medium; format: cell-based; settings: per 6 mm filterpaper disc: TMP 1.25 μg, SMX 23.75 μg, DMHP 100 μg, as in label
# Staphylococcus aureus [6] = test: microbe, parasite or virus in culture; settings: for Percentage of inoculum viable at 24 hrs.: DMHP Nil, Test 2
# Description: The results are shown in Table 9 in which the bactericidal activity is expressed as the percentage of the original inoculum, measured by viable counts, which was alive after 24-hours' incubation at 37° C. The inoculum used gave a final concentration of 10^6 organisms per ml.
# [7] = Staphylococcus aureus, N491, 7 h, read-out: Percentage of inhibition at 7 hrs.
# [8] = Table 6, doses as in E56, listed as TMP
# [9] = Staphylococcus aureus, 24 h, read-out: Percentage of inoculum viable at 24 hrs.
structure (smiles),measurement,setting,value
"Nc1ccc(S(=O)(=O)Nc2cnc3ccccc3n2)cc1 [SQX, sulphaquinoxaline]",Mortality from Coccidiosis,E. tenella,8/10 and 9/10
same,activity alone against Pasteurella multocida,Pasteurella multocida; Example 3 Experiment 1,good activity alone
same,Average Weight of surviving chicks,"Pasteurella multocida; Table 5, doses as in E44",259.5 gm and 234.0 gm
same,Cumulative Mortality on day 5,"Pasteurella multocida; Table 5, doses as in E44",1
same,Cumulative Mortality on day 6,"Pasteurella multocida; Table 5, doses as in E44",1
same,Cumulative Mortality on day 7,"Pasteurella multocida; Table 5, doses as in E44",1
same,Cumulative Mortality on day 8,"Pasteurella multocida; Table 5, doses as in E44",1
same,Cumulative Mortality on day 9,"Pasteurella multocida; Table 5, doses as in E44",1
same,Cumulative Mortality on day 10,"Pasteurella multocida; Table 5, doses as in E44",1
same,Weight gain (% of control),"Pasteurella multocida; Table 5, percentage of uninfected controls, doses as in E44",84 % of control and 69 % of control
same,Cumulative Mortality on day 6,"Pasteurella multocida; Table 6, doses as in E56",1
same,Cumulative Mortality on day 7,"Pasteurella multocida; Table 6, doses as in E56",1
same,Cumulative Mortality on day 8,"Pasteurella multocida; Table 6, doses as in E56",1
same,Cumulative Mortality on day 9,"Pasteurella multocida; Table 6, doses as in E56",1
same,Cumulative Mortality on day 10,"Pasteurella multocida; Table 6, doses as in E56",1
same,Cumulative Mortality on day 11,"Pasteurella multocida; Table 6, doses as in E56",1
same,Cumulative Mortality on day 1,Pasteurella multocida; Table 6,0
"Cc1cc(NS(=O)(=O)c2ccc(N)cc2)no1 [Sulphamethoxazole, sulphamethoxazole]",inhibition at 0.1 µg/mL,[1]; [7],16%
same,Size of zone in cm (×6 magnification),[2],0 cm
same,Size of zone in cm (×6 magnification),Proteus vulgaris CN 329,36 cm
same,Sulphamethoxazole M.I.C.,Staphylococcus aureus [3],1.0 µg/mL
same,Size of zone in cm (×6 magnification),[4],32 cm
same,Size of zone in cm (×6 magnification),Escherichia coli CN 314,28 cm
same,Size of zone in cm (×6 magnification),[5],26 cm
"COc1cc(Cc2cnc(N)nc2N)cc(OC)c1OC [Trimethoprim, 2,4-diamino-5-(3'4',5'-trimethoxybenzyl)pyrimidine]",Percentage of inhibition at 7 hrs.,[1],6 and 12
same,inhibition at 0.002 µg/mL,[1]; [7],10%
same,inhibition at 0.004 µg/mL,[1]; [7],8%
same,Size of zone in cm (×6 magnification),[2],28 cm
same,Size of zone in cm (×6 magnification),Proteus vulgaris CN 329,19 cm
same,Cumulative Mortality on day 4,"Pasteurella multocida; Table 6, doses as in E56",8
same,Cumulative Mortality on day 6,"Pasteurella multocida; Table 6, doses as in E56",10
same,Cumulative Mortality on day 2,Pasteurella multocida; [8],4 and 2
same,Cumulative Mortality on day 3,Pasteurella multocida; [8],4 and 5
same,Cumulative Mortality on day 5,Pasteurella multocida; [8],10 and 8
same,Cumulative Mortality on day 1,Pasteurella multocida; Table 6,0
same,Size of zone in cm (×6 magnification),[4],0 cm
same,viability at 0.3 µg/mL,Staphylococcus aureus [6]; [9],> 100%
same,viability at 1 µg/mL,Staphylococcus aureus [6]; [9],> 100%
same,Percentage of inoculum viable at 24 hrs.,Staphylococcus aureus [6]; Trimethoprim 0.3 μg./ml,> 100%
same,Percentage of inoculum viable at 24 hrs.,Staphylococcus aureus [6]; Trimethoprim 1.0 μg./ml,> 100%
same,Size of zone in cm (×6 magnification),Escherichia coli CN 314,34 cm
same,Size of zone in cm (×6 magnification),[5],21 cm
